Source: patent US5792761A, “Thrombin inhibitors” (Merck & Co., Inc., priority 1997, dated 1998)
Non-standard residues stand in square brackets, D forms with d. Residues, ends and D or L forms follow the SMILES beside them. *: point of attachment. AFC = O=c1cc(C(F)(F)F)c2ccc(N*)cc2o1; pNA = O=[N+]([O-])c1ccc(N*)cc1; Cbz = O=C(OCc1ccccc1)*; Sar = CNCC(=O)O

Columns and labels:
thrombin = test: More sensitive thrombin activity assay: hydrolysis of fluorogenic substrate Z-GPR-afc (fluorescence at 500 nm); format: biochemical, human; details: fluorescence at 500 nm (excitation at 400 nm)
Protocol: (§1) Assays of human a-thrombin and human trypsin were performed at 25° C. in 0.05M TRIS buffer pH 7.4, 0.15M NaCl, 0.1% PEG. Trypsin assays also contained 1 mM CaCl2.
(§2) In certain studies with potent inhibitors (Ki <10 nM) where the degree of inhibition of thrombin was high, a more sensitive activity assay was employed. […] Concentrations of stock solutions of Z-GPR-afc were determined from measurements of absorbance at 380 nm of the 7-amino-4-trifluoromethyl coumarin produced upon complete hydrolysis of an aliquot of the stock solution by thrombin.
(§3) Activity assays were performed by diluting a stock solution of substrate at least tenfold to a final concentration 0.5 Km into a solution containing enzyme or enzyme equilibrated with inhibitor. Times required to achieve equilibration between enzyme and inhibitor were determined in control experiments. Initial velocities of product formation in the absence (Vo) or presence of inhibitor (Vi) were measured. Assuming competitive inhibition, and that unity is negligible compared Km /[S], […] (where [S], [I], and e respectively represent the total concentrations, of substrate, inhibitor and enzyme), the equilibrium constant (Ki) for dissociation of the inhibitor from the enzyme can be obtained from the dependence of Vo /Vi on [I] shown in equation 1.

human thrombin = test: In vitro assay for determining proteinase inhibition: human thrombin (sar-PR-pna hydrolysis at 405 nm; Z-GPR-afc for potent inhibitors); format: biochemical; details: 25° C., pH 7.4; chromogenic substrate
Protocol: (§4) In vitro assay for determining proteinase inhibition
as §1, §2, §3

human trypsin = test: In vitro assay for determining proteinase inhibition: human trypsin (sar-PR-pna hydrolysis at 405 nm); format: biochemical; details: 25° C., pH 7.4, 1 mM CaCl2; chromogenic substrate
Protocol: as §4, §1, §3

Compound | Km (thrombin) | Km (human thrombin) | Km (human trypsin)
N=C(N)NCCC[C@H](NC(=O)[C@@H]1CCCN1C(=O)CNC(=O)OCc1ccccc1)C(=O)Nc1ccc2c(C(F)(F)F)cc(=O)oc2c1 [Z-GPR-afc, Cbz-Gly-Pro-Arg-7-amino-4-trifluoromethylcoumarin] (Cbz-Gly-Pro-Arg-{AFC}) | 27 µM |  | 
CNCC(=O)N1CCC[C@H]1C(=O)N[C@@H](CCCNC(=N)N)C(=O)Nc1ccc([N+](=O)[O-])cc1 [sar-PR-pna, sarcosine-Pro-Arg-p-nitroanilide] (H-[Sar]-Pro-Arg-pNA) |  | 125 µM | 59 µM
